Assays:
Format in all cases: functional
Erythrocyte [1] = test: Inhibition of AAPH-induced hemolysis in human erythrocytes assessed as hemolysis time at 6.17 uM
Erythrocyte [2] = test: Inhibition of AAPH-induced hemolysis in human erythrocytes assessed as hemolysis time at 9.26 uM
Erythrocyte [3] = test: Inhibition of AAPH-induced hemolysis in human erythrocytes assessed as hemolysis time at 12.3 uM
Erythrocyte [4] = test: Inhibition of AAPH-induced hemolysis in human erythrocytes assessed as hemolysis time at 15.4 uM
Erythrocyte [5] = test: Inhibition of AAPH-induced hemolysis in human erythrocytes assessed as hemolysis time at 20.6 uM
Erythrocyte [6] = test: Inhibition of AAPH-induced hemolysis in human erythrocytes assessed as hemolysis inhibition time at 6.17 uM
Erythrocyte [7] = test: Inhibition of AAPH-induced hemolysis in human erythrocytes assessed as hemolysis inhibition time at 9.26 uM
Erythrocyte [8] = test: Inhibition of AAPH-induced hemolysis in human erythrocytes assessed as hemolysis inhibition time at 12.3 uM
Erythrocyte [9] = test: Inhibition of AAPH-induced hemolysis in human erythrocytes assessed as hemolysis inhibition time at 15.4 uM
Erythrocyte [10] = test: Inhibition of AAPH-induced hemolysis in human erythrocytes assessed as hemolysis inhibition time at 20.6 uM
Erythrocyte [11] = test: Inhibition of AAPH-induced hemolysis in human erythrocytes assessed as hemolysis time at 3 uM
Erythrocyte [12] = test: Inhibition of AAPH-induced hemolysis in human erythrocytes assessed as hemolysis time at 6 uM
Erythrocyte [13] = test: Inhibition of AAPH-induced hemolysis in human erythrocytes assessed as hemolysis time at 9 uM
Erythrocyte [14] = test: Inhibition of AAPH-induced hemolysis in human erythrocytes assessed as hemolysis time at 12 uM
Erythrocyte [15] = test: Inhibition of AAPH-induced hemolysis in human erythrocytes assessed as hemolysis time at 15 uM
Erythrocyte [16] = test: Inhibition of AAPH-induced hemolysis in human erythrocytes assessed as hemolysis inhibition time at 3 uM
Erythrocyte [17] = test: Inhibition of AAPH-induced hemolysis in human erythrocytes assessed as hemolysis inhibition time at 6 uM
Erythrocyte [18] = test: Inhibition of AAPH-induced hemolysis in human erythrocytes assessed as hemolysis inhibition time at 9 uM
Erythrocyte [19] = test: Inhibition of AAPH-induced hemolysis in human erythrocytes assessed as hemolysis inhibition time at 12 uM
Erythrocyte [20] = test: Inhibition of AAPH-induced hemolysis in human erythrocytes assessed as hemolysis inhibition time at 15 uM
Erythrocyte [21] = test: Inhibition of AAPH-induced hemolysis in human erythrocytes assessed as hemolysis time at 12.4 uM
Erythrocyte [22] = test: Inhibition of AAPH-induced hemolysis in human erythrocytes assessed as hemolysis time at 8.26 uM
Erythrocyte [23] = test: Inhibition of AAPH-induced hemolysis in human erythrocytes assessed as hemolysis time at 16.5 uM
Erythrocyte [24] = test: Inhibition of AAPH-induced hemolysis in human erythrocytes assessed as hemolysis time at 20.7 uM
Erythrocyte [25] = test: Inhibition of AAPH-induced hemolysis in human erythrocytes assessed as hemolysis time at 24.8 uM
Erythrocyte [26] = test: Inhibition of AAPH-induced hemolysis in human erythrocytes assessed as hemolysis inhibition time at 12.4 uM
Erythrocyte [27] = test: Inhibition of AAPH-induced hemolysis in human erythrocytes assessed as hemolysis inhibition time at 8.26 uM
Erythrocyte [28] = test: Inhibition of AAPH-induced hemolysis in human erythrocytes assessed as hemolysis inhibition time at 16.5 uM
Erythrocyte [29] = test: Inhibition of AAPH-induced hemolysis in human erythrocytes assessed as hemolysis inhibition time at 20.7 uM
Erythrocyte [30] = test: Inhibition of AAPH-induced hemolysis in human erythrocytes assessed as hemolysis inhibition time at 24.8 uM
Erythrocyte [31] = test: Inhibition of AAPH-induced hemolysis in human erythrocytes assessed as hemolysis time at 50.8 uM
Erythrocyte [32] = test: Inhibition of AAPH-induced hemolysis in human erythrocytes assessed as hemolysis time at 20.3 uM
Erythrocyte [33] = test: Inhibition of AAPH-induced hemolysis in human erythrocytes assessed as hemolysis time at 30.5 uM
Erythrocyte [34] = test: Inhibition of AAPH-induced hemolysis in human erythrocytes assessed as hemolysis time at 37.3 uM
Erythrocyte [35] = test: Inhibition of AAPH-induced hemolysis in human erythrocytes assessed as hemolysis time at 61 uM
Erythrocyte [36] = test: Inhibition of AAPH-induced hemolysis in human erythrocytes assessed as hemolysis inhibition time at 20.3 uM
Erythrocyte [37] = test: Inhibition of AAPH-induced hemolysis in human erythrocytes assessed as hemolysis inhibition time at 30.5 uM
Erythrocyte [38] = test: Inhibition of AAPH-induced hemolysis in human erythrocytes assessed as hemolysis inhibition time at 37.3 uM
Erythrocyte [39] = test: Inhibition of AAPH-induced hemolysis in human erythrocytes assessed as hemolysis inhibition time at 50.8 uM
Erythrocyte [40] = test: Inhibition of AAPH-induced hemolysis in human erythrocytes assessed as hemolysis inhibition time at 61 uM
Erythrocyte [41] = test: Inhibition of AAPH-induced hemolysis in human erythrocytes assessed as hemolysis time at 10.8 uM
Erythrocyte [42] = test: Inhibition of AAPH-induced hemolysis in human erythrocytes assessed as hemolysis time at 13.9 uM
Erythrocyte [43] = test: Inhibition of AAPH-induced hemolysis in human erythrocytes assessed as hemolysis time at 9.27 uM
Erythrocyte [44] = test: Inhibition of AAPH-induced hemolysis in human erythrocytes assessed as hemolysis time at 15.5 uM
Erythrocyte [45] = test: Inhibition of AAPH-induced hemolysis in human erythrocytes assessed as hemolysis inhibition time at 15.5 uM
Erythrocyte [46] = test: Inhibition of AAPH-induced hemolysis in human erythrocytes assessed as hemolysis inhibition time at 9.27 uM
Erythrocyte [47] = test: Inhibition of AAPH-induced hemolysis in human erythrocytes assessed as hemolysis inhibition time at 10.8 uM
Erythrocyte [48] = test: Inhibition of AAPH-induced hemolysis in human erythrocytes assessed as hemolysis inhibition time at 13.9 uM

## c1ccc2c(c1)[nH]c1ccccc12 [CARBAZOLE]
Erythrocyte [1]
  Activity: 265 min
Erythrocyte [2]
  Activity: 298 min
Erythrocyte [3]
  Activity: 327 min
Erythrocyte [4]
  Activity: 364 min
Erythrocyte [5]
  Activity: 406 min
Erythrocyte [6]
  Activity: 68 min
Erythrocyte [7]
  Activity: 101 min
Erythrocyte [8]
  Activity: 130 min
Erythrocyte [9]
  Activity: 167 min
Erythrocyte [10]
  Activity: 209 min

## c1ccc(Nc2ccccc2)cc1 [DIPHENYLAMINE]
Erythrocyte [11]
  Activity: 257 min
Erythrocyte [12]
  Activity: 346 min
Erythrocyte [13]
  Activity: 400 min
Erythrocyte [14]
  Activity: 458 min
Erythrocyte [15]
  Activity: 489 min
Erythrocyte [16]
  Activity: 24 min
Erythrocyte [17]
  Activity: 113 min
Erythrocyte [18]
  Activity: 167 min
Erythrocyte [19]
  Activity: 225 min
Erythrocyte [20]
  Activity: 256 min

## C1=Cc2ccccc2Nc2ccccc21 [IMINOSTILBENE]
Erythrocyte [21]
  Activity: 297 min
Erythrocyte [22]
  Activity: 264 min
Erythrocyte [23]
  Activity: 333 min
Erythrocyte [24]
  Activity: 365 min
Erythrocyte [25]
  Activity: 381 min
Erythrocyte [26]
  Activity: 85 min
Erythrocyte [27]
  Activity: 52 min
Erythrocyte [28]
  Activity: 121 min
Erythrocyte [29]
  Activity: 153 min
Erythrocyte [30]
  Activity: 169 min

## c1ccc2c(c1)Nc1ccccc1S2 [PHENOTHIAZINE]
Erythrocyte [31]
  Activity: 408 min
Erythrocyte [32]
  Activity: 275 min
Erythrocyte [33]
  Activity: 330 min
Erythrocyte [34]
  Activity: 368 min
Erythrocyte [35]
  Activity: 451 min
Erythrocyte [36]
  Activity: 64 min
Erythrocyte [37]
  Activity: 119 min
Erythrocyte [38]
  Activity: 157 min
Erythrocyte [39]
  Activity: 197 min
Erythrocyte [40]
  Activity: 240 min

## c1ccc2c(c1)Nc1ccccc1O2 [PHENOXAZINE]
Erythrocyte [41]
  Activity: 379 min
Erythrocyte [42]
  Activity: 461 min
Erythrocyte [21]
  Activity: 425 min
Erythrocyte [43]
  Activity: 345 min
Erythrocyte [44]
  Activity: 509 min
Erythrocyte [45]
  Activity: 322 min
Erythrocyte [46]
  Activity: 158 min
Erythrocyte [47]
  Activity: 192 min
Erythrocyte [26]
  Activity: 238 min
Erythrocyte [48]
  Activity: 274 min

From ChEMBL document CHEMBL1146373, “Free-radical-scavenging effect of carbazole derivatives on AAPH-induced hemolysis of human erythrocytes” (2007)
